Activity calls are given as the source filed them.
Assays:
[1] = molecular target: Voltage-gated inwardly rectifying potassium channel KCNH2 (Homo sapiens, UniProt Q12809); details: Potency;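 further: confirmatory quantitative high-throughput screen measuring inhibition of hERG channel activity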
[2] = molecular target: T1, Replicative DNA helicase DnaB (Mycobacterium tuberculosis, UniProt P9WMR3); assay: DnaB intein splicing inhibitors, dose response, biochemical, cell-free fluorescence (AID 449749); assay type: functional
T1 sequence (P9WMR3 whole entry): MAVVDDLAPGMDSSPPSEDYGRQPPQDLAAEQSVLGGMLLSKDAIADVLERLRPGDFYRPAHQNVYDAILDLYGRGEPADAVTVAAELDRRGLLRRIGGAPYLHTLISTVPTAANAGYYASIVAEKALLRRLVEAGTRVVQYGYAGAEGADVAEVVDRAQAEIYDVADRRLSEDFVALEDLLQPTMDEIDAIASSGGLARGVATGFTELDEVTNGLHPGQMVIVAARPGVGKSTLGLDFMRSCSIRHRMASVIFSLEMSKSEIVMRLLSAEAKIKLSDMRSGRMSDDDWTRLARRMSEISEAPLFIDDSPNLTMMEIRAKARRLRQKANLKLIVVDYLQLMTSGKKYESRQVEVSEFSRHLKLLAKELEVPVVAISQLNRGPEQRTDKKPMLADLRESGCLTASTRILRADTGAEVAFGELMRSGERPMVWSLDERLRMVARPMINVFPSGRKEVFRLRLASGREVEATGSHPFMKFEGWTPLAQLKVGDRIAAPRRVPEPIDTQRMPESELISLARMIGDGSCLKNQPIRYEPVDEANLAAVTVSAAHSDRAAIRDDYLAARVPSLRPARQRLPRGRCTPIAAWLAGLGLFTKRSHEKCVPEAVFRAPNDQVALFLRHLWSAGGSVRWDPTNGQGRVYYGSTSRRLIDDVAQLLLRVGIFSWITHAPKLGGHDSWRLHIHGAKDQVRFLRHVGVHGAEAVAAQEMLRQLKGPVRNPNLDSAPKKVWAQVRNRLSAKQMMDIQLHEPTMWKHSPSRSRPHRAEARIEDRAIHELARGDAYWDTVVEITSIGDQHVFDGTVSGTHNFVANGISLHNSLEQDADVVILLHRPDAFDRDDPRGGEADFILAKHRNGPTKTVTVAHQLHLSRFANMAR

Vero [3] = assay: cells; assay type: functional, cell-based; details: Chlorocebus sabaeus
Protein RecA = molecular target: T2, Protein RecA (Mycobacterium tuberculosis, UniProt P9WHJ3); assay: Fluorescence Cell-Free Homogeneous Dose Retest to Identify Inhibitors of RecA-Intein Splicing Activity. [Related pubchem assays (depositor defined):AID2097, AID2223, AID489010, AID492950]; assay type: functional
T2 sequence (P9WHJ3 whole entry): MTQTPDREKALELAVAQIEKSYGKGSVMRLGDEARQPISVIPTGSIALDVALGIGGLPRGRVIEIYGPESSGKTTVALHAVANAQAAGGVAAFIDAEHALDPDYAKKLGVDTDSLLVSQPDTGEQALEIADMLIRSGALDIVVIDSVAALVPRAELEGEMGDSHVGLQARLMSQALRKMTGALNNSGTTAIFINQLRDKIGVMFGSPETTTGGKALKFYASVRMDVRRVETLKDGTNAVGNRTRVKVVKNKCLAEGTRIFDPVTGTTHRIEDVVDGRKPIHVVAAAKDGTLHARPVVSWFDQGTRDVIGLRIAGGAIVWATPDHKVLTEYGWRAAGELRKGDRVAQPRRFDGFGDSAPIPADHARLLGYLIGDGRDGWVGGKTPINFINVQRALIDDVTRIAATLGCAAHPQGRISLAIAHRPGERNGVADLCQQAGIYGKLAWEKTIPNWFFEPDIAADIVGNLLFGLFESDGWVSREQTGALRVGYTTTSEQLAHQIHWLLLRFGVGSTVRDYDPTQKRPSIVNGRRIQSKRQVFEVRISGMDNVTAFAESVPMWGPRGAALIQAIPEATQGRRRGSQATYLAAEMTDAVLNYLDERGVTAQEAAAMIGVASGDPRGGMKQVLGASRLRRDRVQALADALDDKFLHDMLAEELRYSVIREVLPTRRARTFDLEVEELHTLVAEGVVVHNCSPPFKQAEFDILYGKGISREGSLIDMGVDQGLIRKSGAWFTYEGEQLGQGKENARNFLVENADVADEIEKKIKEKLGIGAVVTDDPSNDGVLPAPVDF

Vero [4] = assay: cells; assay type: functional; details: Chlorocebus sabaeus
Paired box protein Pax-8 = Paired box protein Pax-8 (Homo sapiens, UniProt Q06710); assay: inhibitors of PAX8-driven TPO luciferase reporter, dose response, RMG-I cells, cherry-pick (AID 687027); assay type: functional, cell-based;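 further: luciferase reporter driven by Pax8 target thyroperoxidase promoter measured by SteadyGlo luminescence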
[5] = non-specific cell cytotoxicity, dose response, cytotoxicity control for PAX8 inhibitor project, plate reader, dry powder samples (AID 743021); assay type: functional, cell-based
[6] = NIH-3T3 fibroblast cytotoxicity, dose response, cytotoxicity control, cell-based, fluorescence, Alamar Blue, secondary assay (AID 2327); assay type: functional;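 further: NIH-3T3 mouse fibroblasts cultured with fluconazole at 8 µg/mL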
[7] = test system: Streptococcus sp. 'group A'; assay: growth inhibition of control SK(-) GAS strain, dose response, counter-screen for streptokinase expression inhibitor project, luminescence, kanamycin, BacTiterGlo, confirmation (AID 1900); assay type: functional, organism-based
[8] = C. albicans growth with fluconazole, confirmation, fluorescence, retest (AID 2467); assay type: functional, cell-based
[9] = molecular target: T3, Serine/threonine-protein phosphatase (Candida dubliniensis (strain CD36 / CBS 7987 / NCPF 3949 / NRRLY-17841) (Yeast), UniProt B9W6M3); assay: calcineurin pathway inhibitors in yeast reporter, dose response, S. cerevisiae, CDRE-lacZ, luminescence, secondary (AID 2388); assay type: functional, cell-based;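 further: yeast reporter cells carrying a calcineurin-responsive lacZ construct stimulated with calcium chloride; luminescent beta-galactosidase reporter signal in whole cells rather than isolated phosphatase activity; potency for inhibition where a drop in reporter signal means calcineurin blockade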
T3 sequence (B9W6M3 whole entry): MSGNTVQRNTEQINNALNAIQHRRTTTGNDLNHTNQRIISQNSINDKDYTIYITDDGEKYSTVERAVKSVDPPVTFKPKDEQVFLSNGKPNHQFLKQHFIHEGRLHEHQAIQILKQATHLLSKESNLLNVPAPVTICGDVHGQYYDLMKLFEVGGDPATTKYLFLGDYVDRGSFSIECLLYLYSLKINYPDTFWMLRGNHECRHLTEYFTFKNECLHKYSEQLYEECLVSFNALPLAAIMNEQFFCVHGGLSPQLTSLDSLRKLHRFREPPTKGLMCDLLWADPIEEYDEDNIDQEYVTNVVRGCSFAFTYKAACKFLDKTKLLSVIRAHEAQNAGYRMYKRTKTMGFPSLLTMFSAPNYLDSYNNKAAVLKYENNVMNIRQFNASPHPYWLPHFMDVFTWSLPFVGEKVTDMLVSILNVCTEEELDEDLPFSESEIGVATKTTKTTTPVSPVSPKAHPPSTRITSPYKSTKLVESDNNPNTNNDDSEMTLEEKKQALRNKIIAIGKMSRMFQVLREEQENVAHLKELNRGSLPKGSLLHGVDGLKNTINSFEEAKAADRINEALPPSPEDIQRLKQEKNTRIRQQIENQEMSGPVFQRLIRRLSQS

Streptococcus = assay: Group A Streptococcus viability loss, dose response, counter-screen for streptokinase expression inhibitor project, luminescence, BacTiterGlo (AID 1915); assay type: functional, organism-based;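 further: potency for reduction of bacterial viability or growth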
INS1 = assay: beta cell apoptosis inhibitors, cytokine rescue, dose response, luminescence, retest (AID 449756); assay type: functional, cell-based; details: Rattus norvegicus;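 further: cell death triggered by IL-1 beta plus TNF-alpha plus IFN-gamma mixture; protective hits raise ATP signal compared with cytokine alone wells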
[10] = molecular target: ATP-dependent molecular chaperone HSP82 (Candida albicans (strain WO-1) (Yeast), UniProt C4YTQ8); assay: loss of DOC-induced GRE-beta-galactosidase reporter signal, dose response, Hsp90 inhibitor project, S. cerevisiae, luminescence (AID 2400); assay type: functional, cell-based;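 further: beta-galactosidase luminescence from glucocorticoid response element reporter as proxy for Hsp90 function; inhibitor potency where signal loss means Hsp90 inhibition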
[11] = molecular target: T4, Heat shock factor protein 1 (Mus musculus, UniProt P38532); assay: inhibition of MG132-induced HSE-luciferase signal, confirmation, cell-based, NIH3T3, luminescence, dose retest (AID 2382); assay type: functional;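 further: NIH3T3 fibroblasts with HSF1-driven luciferase reporter stressed by proteasome inhibitor MG132; luminescence from HSF1-driven luciferase expression after 8 hours of MG132 stress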
T4 sequence (P38532 whole entry): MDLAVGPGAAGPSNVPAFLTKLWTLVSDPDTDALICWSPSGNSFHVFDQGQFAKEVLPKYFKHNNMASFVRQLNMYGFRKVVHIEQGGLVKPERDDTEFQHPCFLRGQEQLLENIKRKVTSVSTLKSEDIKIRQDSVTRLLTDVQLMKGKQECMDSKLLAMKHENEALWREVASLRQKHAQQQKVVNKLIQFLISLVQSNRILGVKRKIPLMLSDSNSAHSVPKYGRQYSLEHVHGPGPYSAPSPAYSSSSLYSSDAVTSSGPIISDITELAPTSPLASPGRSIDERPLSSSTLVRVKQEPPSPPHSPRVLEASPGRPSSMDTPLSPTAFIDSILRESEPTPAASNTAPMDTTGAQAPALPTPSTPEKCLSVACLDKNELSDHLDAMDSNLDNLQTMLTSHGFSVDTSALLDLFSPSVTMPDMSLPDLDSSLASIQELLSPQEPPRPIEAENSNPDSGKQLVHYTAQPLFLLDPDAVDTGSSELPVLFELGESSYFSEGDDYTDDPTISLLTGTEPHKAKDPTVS

Escherichia coli = assay: microbe, parasite or virus in culture
[12] = molecular target: Dual specificity tyrosine-phosphorylation-regulated kinase 1A (Rattus norvegicus, UniProt Q63470); assay type: biochemical, Homo sapiens
Mu-type opioid receptor = Mu-type opioid receptor (Homo sapiens, UniProt P35372); assay type: functional, cell-based;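 further: U2OS cells with beta-arrestin recruitment to OPRM1 by beta-gal complementation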
[13] = molecular target: 5-hydroxytryptamine receptor 2A (Mus musculus, UniProt P35363); assay type: functional, cell-based;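 further: CHO-K1 cells with tagged receptor and beta-arrestin; agonist potency measured as compound-induced activation of the receptor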
Aminopeptidase N = molecular target: T5, Aminopeptidase N (Plasmodium falciparum FcB1/Columbia, UniProt O96935); assay: P. falciparum M1AAP inhibitors, biochemical, fluorogenic H-Leu-NHMec substrate, 1536-well (AID 1445); parameters: species or system Plasmodium falciparum 3D7, 3D7
T5 sequence (O96935 whole entry): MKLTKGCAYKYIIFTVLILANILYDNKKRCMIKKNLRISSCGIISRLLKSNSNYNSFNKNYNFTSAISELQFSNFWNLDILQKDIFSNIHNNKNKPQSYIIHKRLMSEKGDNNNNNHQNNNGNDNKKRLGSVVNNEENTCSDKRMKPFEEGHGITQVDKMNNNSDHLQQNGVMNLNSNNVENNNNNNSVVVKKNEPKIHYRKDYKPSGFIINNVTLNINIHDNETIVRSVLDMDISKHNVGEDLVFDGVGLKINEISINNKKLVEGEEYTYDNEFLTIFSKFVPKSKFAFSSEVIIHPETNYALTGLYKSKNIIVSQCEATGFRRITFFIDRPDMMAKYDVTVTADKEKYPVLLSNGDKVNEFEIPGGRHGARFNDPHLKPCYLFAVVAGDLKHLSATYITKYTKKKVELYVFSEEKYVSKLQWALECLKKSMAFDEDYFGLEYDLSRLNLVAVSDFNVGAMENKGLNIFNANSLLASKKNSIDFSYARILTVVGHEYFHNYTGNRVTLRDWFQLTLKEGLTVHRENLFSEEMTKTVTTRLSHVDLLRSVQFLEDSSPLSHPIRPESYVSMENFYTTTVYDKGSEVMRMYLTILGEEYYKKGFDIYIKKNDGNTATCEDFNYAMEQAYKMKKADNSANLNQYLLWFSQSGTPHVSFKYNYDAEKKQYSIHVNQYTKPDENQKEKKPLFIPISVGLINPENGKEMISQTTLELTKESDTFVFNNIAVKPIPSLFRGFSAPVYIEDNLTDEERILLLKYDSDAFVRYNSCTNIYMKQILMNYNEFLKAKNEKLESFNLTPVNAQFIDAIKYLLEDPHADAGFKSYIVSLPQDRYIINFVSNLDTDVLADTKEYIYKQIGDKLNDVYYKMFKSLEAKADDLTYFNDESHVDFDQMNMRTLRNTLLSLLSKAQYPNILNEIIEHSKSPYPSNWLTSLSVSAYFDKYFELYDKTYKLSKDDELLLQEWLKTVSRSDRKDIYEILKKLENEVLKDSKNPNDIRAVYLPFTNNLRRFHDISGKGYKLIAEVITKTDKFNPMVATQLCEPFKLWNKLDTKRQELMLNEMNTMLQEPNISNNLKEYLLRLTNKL

Sequence of Voltage-gated inwardly rectifying potassium channel KCNH2 (Q12809 whole entry): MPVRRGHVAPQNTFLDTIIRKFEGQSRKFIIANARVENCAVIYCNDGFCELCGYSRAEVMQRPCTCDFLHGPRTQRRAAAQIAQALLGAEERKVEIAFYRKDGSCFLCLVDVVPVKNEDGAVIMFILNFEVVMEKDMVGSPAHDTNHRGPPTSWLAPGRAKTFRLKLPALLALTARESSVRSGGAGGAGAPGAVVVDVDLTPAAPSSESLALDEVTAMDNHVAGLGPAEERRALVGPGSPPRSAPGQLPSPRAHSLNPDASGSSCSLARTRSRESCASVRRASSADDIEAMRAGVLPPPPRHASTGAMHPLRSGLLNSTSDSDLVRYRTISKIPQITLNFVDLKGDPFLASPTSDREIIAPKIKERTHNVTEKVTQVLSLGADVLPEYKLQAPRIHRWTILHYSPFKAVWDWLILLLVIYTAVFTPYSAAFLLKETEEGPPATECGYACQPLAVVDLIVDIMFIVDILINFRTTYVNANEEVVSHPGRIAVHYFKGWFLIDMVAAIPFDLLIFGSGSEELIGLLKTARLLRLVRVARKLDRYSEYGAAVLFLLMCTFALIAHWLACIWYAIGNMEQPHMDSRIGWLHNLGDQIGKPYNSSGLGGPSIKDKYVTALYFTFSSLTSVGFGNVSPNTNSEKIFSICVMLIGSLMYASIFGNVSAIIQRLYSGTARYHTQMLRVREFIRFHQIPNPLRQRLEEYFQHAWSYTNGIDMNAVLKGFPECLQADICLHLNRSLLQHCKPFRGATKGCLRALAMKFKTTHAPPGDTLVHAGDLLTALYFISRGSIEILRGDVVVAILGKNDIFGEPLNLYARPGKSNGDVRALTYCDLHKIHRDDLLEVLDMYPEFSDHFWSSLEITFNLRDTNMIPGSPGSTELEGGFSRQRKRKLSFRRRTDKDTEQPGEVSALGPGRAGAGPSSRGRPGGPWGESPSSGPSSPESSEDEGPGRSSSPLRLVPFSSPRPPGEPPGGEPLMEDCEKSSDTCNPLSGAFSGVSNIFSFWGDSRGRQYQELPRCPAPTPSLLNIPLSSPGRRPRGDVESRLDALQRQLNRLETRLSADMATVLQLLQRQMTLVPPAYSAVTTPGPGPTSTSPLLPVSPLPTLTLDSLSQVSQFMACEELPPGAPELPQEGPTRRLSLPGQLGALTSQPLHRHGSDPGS
Sequence of ATP-dependent molecular chaperone HSP82 (C4YTQ8 whole entry): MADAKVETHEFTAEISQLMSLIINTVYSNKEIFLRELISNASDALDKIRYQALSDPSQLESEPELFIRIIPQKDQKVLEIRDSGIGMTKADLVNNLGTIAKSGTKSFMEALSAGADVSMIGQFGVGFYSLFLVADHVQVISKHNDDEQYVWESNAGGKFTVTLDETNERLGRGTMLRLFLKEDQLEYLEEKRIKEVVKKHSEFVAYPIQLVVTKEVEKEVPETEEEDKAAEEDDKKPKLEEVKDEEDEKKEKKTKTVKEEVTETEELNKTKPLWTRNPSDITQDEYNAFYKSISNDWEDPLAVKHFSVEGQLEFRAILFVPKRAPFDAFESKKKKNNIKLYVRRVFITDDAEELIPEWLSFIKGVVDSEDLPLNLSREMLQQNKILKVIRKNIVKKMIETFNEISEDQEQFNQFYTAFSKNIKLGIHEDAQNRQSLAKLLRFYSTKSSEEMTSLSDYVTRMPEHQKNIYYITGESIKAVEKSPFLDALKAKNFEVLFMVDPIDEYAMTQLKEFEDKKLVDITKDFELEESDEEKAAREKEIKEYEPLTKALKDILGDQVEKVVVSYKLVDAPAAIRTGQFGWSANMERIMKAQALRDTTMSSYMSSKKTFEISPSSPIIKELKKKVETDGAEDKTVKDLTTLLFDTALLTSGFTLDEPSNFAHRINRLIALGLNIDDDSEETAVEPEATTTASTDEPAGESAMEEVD
Sequence of Paired box protein Pax-8 (Q06710 whole entry): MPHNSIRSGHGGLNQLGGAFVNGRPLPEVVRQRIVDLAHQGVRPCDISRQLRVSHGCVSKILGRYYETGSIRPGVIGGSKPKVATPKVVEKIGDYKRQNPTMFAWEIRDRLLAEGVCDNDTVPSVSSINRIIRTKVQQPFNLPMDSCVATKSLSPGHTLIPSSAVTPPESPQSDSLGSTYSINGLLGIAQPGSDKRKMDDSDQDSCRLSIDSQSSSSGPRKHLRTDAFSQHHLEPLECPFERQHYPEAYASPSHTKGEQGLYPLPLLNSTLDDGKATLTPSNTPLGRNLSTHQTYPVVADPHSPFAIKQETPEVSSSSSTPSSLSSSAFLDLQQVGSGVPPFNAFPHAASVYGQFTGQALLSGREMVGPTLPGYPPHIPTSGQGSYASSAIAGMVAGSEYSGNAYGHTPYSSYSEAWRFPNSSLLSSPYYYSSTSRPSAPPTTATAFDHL
Sequence of 5-hydroxytryptamine receptor 2A (P35363 whole entry): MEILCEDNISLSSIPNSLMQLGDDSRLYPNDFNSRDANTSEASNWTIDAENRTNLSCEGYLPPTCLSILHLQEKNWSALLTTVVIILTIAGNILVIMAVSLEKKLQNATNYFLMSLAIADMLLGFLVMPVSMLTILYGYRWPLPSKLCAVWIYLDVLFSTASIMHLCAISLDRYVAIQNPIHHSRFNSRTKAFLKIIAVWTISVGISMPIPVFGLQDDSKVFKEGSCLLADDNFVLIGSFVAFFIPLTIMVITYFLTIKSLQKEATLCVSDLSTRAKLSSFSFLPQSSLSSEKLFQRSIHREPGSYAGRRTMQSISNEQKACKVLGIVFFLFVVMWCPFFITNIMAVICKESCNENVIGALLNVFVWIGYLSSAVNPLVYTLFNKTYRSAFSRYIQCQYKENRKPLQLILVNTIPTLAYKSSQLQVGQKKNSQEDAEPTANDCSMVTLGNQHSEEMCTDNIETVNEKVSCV
Sequence of Mu-type opioid receptor (P35372 whole entry): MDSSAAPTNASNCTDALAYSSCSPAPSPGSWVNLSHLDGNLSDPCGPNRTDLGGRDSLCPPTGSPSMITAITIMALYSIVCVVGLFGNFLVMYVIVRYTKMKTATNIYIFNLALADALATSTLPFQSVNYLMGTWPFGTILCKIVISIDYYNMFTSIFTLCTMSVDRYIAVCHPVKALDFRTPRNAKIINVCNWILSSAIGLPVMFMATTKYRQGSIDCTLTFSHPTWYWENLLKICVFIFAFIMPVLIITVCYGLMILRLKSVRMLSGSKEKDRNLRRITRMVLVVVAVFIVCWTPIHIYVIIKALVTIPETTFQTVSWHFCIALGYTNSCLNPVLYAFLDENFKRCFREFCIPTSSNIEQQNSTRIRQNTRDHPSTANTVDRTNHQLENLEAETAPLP

## COc1cc(N)c(Cl)cc1C(=O)OCCN1CCCCC1
[1]
  AC50: 25.1 µM (inconclusive)

## Cc1cccc(N(Cc2cc(O)nc3ccccc23)C(=O)CCl)c1
[2]
  AC50: 10.5 µM (active)
Vero [3]
  IC50: > 25 µM (active)
Protein RecA
  EC50: 1.67 µM (active)
Vero [4]
  CC50: 5.83 µM (active)
Paired box protein Pax-8
  AC50: 3.93 µM (active)
[5]
  AC50: 24.9 µM (active)

## Cc1cc(N/N=C/c2c(O)ccc3ccccc23)nc(-c2ccccc2O)n1
[6]
  EC50: > 160 µM (inactive)
[7]
  EC50: 0.235 µM (active)
[8]
  EC50: 2.07 µM (active)
[9]
  EC50: > 180 µM (inactive)
Streptococcus
  EC50: 0.425 µM (active)
INS1
  AC50: 1.69 µM (active)
[10]
  EC50: 38.8 µM (active)

## CC(C)OC(=O)Cn1c(=O)oc2ccccc21
[11]
  EC50: > 195 µM (not active)
Escherichia coli
  AC50: 21.8 µM (active)

## CC(C)c1ccccc1 [ISOPROPYLBENZENE]
[1]
  AC50: 1.58 µM (inconclusive)

## O=C(O)c1cc(/N=C/c2c(O)oc3ccccc3c2=O)ccc1O
[12]
  AC50: 32.5 µM (active)

## COc1cccc(-c2nc(NC(C)C)c3ccccc3n2)c1O
[6]
  EC50: > 160 µM (inactive)
[8]
  EC50: 4.42 µM (active)
[9]
  EC50: > 180 µM (inactive)
[10]
  EC50: 54.5 µM (active)
Mu-type opioid receptor
  EC50: 92.5 µM (inactive)
[13]
  EC50: 8.51 µM (active)

## Cc1cc(-c2ccc(C(=O)O)s2)cnc1N
Aminopeptidase N
  IC50: 58.9 µM (active)
[12]
  AC50: 4.79 µM (active)

## OCc1c[nH]cn1
[1]
  AC50: 1.78 µM (inconclusive)

## CC(Oc1cccnc1[N+](=O)[O-])C(=O)N1CCc2ccccc21 (stereo not given)
Escherichia coli
  AC50: 22.2 µM (active)

## CC(=O)Nc1ccc(NS(=O)(=O)c2ccc3ccccc3c2)cc1
Escherichia coli
  AC50: 27.4 µM (active)

## CCCC(=O)Nc1nc(-c2ccc3c(c2)OCCO3)cs1
[12]
  AC50: 8.75 µM (active)
